Source: ChEMBL document CHEMBL1123073, “Conjugates of catecholamines. 6. Synthesis and beta-adrenergic activity of N-(hydroxyalkyl)catecholamine derivatives” (1985)

Assay: Relative potency was determined in vitro by measuring the accumulation of cyclic AMP in SV-49 mouse lymphoma cells relative to dl-isoproterenol
Format: functional

Question: Which Relative potency does the source give for `O=P(O)(O)O.OCCCNCC(O)c1ccc(O)c(O)c1` (centres undefined) here?
Answer: 0.0058

Question: With `Cc1ccc(C(=O)OCCCC(C)NCC(O)c2ccc(O)c(O)c2)cc1.O=P(O)(O)O` (centres undefined) as the molecule, how does the Relative potency read?
Answer: 0.0063

Question: For `CC(CCCOC(=O)NC1CCCCC1)NCC(O)c1ccc(O)c(O)c1.Cl` (centres undefined), which Relative potency is on record?
Answer: 29

Question: With `Cc1ccc(NC(=O)OCCCCC(C)NCC(O)c2ccc(O)c(O)c2)cc1.O=P(O)(O)O` (centres undefined) as the molecule, how does the Relative potency read?
Answer: 1.3

Question: With `Cc1ccc(C(=O)NC(=O)OCCCC(C)NCC(O)c2ccc(O)c(O)c2)cc1.Cl` (centres undefined) as the molecule, how does the Relative potency read?
Answer: 73

Question: For `CC(CCO)NCC(O)c1ccc(O)c(O)c1.O=P(O)(O)O` (centres undefined), which Relative potency is on record?
Answer: 0.012

Question: For `CCCCNC(=O)OCCCC(C)NCC(O)c1ccc(O)c(O)c1.O=P(O)(O)O` (centres undefined), which Relative potency is on record?
Answer: 190

Question: For `Cc1ccc(NC(=O)OCCCC(C)NCC(O)c2ccc(O)c(O)c2)cc1.O=P(O)(O)O` (centres undefined), which Relative potency is on record?
Answer: 0.092

Question: For `CC(CCCO)NCC(O)c1ccc(O)c(O)c1.O=P(O)(O)O` (centres undefined), which Relative potency is on record?
Answer: 1.3
